Data: patent US20070254914A1, “Low-concentration atropine solution for preventing myopia progression and preparing method thereof” (Non-Profit Organization Chang Gung Memorial Hospital, priority 2006, published 2007)
Structures can show the parent of a compound that is named as a salt. Where two headings read alike, the source gives them in different places. Each block holds one compound with its values, some of them ahead of it.

Legend:
mydriasis phenomenon = experiment: durations of mydriasis phenomenon in administration of different ingredients for preventing myopia progression; type: in vivo, human
[1] = test system: patients (pupil diameter); experiment: mydriasis phenomenon (pupil diameter) after administration of different atropine concentrations; type: in vivo, human
patients (photophobia) = experiment: photophobia ratios with administration of different atropine concentrations; type: in vivo, human
Description: According to following Table 6, patients treated with 0.05% (w/w) atropine solution suffered the photophobia in a lower ratio in comparison with ones treated with 0.1% (w/w) atropine solution.

Myopic Children = settings: Shin's study 1999, cited from earlier work
[2] = test system: patients (accommodation capability of eyes); experiment: influences on accommodation capability with administration of different atropine concentrations; type: in vivo, human
Procedure: Moreover, the myopia exacerbation also substantially relates to visual distance during near working that the patient continuously overuses high accommodation capability of eyes.
With regard to Table 4, 21 patients were treated with 0.05% (w/w) atropine solution in a first treatment group, 9 patients were treated with 0.1% (w/w) atropine solution in a second treatment group and 6 patients were treated with blank solution in the control group. Male-female ratios in the treatment groups and the control group were respectively […] in the first treatment group, 5:4 in the second treatment group and 3:3 in the control group.
Wherein, average ages were respectively 9.4±1.7 years old in the first treatment group, 11±1.7 years old in the second treatment group and 10±2 years old in the control group.
Treating periods of the treatment groups in average were respectively 22.43±12.9 months in the first treatment group and 25.88±12.47 months in the second treatment group.
Observation timing after applying the atropine solutions were respectively 16.37±2.53 hours in the first treatment group and 17.11±1.9 hours in the second treatment group.

[3] = test system: patients (myopia progression); experiment: study of the present invention in 2006: myopia progression in patients treated with 0.05% atropine solution; type: in vivo, human; settings: for Increased diopter (D) per year: 0.05% (w/w) atropine solution
Description: With regard to Table 2, 21 patients (42 eyes) were subject in the treatment group and 36 patients were subject in the control group. All patients are residents in southern Taiwan. Male-female ratios in the treatment group and the control group were respectively 12:9 and 18:18.
Wherein, an average age in the treatment group was 8.38±1.47 years old (range from 6 to 12 years old) and an average age in the control group was 8.11±1.12 years old (range from 6 to 12 years old).
Treating periods of the treatment group and the control group in average are respectively 19.95±9.04 months and 21.47±10.02.

[4] = marketed concentrations as listed in Table 7 (Soln/Ointment 0.5%-3%)

- Duration of mydriasis (mydriasis phenomenon; human, in vivo): 2 days
- Occurring time (mydriasis) (mydriasis phenomenon; human, in vivo): 30 to 60 min
SMILES: CN(C)CCOC(=O)C(c1ccccc1)C1(O)CCCC1 (stereo not shown) [Cyclopentolate Hydrochloride]

SMILES: CN1[C@@H]2CC[C@H]1C[C@@H](OC(=O)C(CO)c1ccccc1)C2 (stereo partly shown) [Atropine sulfate]
- Occurring time (mydriasis) (mydriasis phenomenon; Soln, 0.05%): 45 to 120 min
- Duration of mydriasis (mydriasis phenomenon; Soln, 0.05% (w/w)): 0.5 to 0.75 days
- Duration of mydriasis (mydriasis phenomenon; [4]): 7 to 14 days
- Occurring time (mydriasis) (mydriasis phenomenon; [4]): 45 to 120 min

SMILES: CN1[C@@H]2CC[C@H]1C[C@@H](OC(=O)C(CO)c1ccccc1)C2 (stereo partly shown) [Atropine, atropine]
- Pupil diameter ([1]; 0.05% atropine solution): 5.52 mm
- Pupil diameter ([1]; 0.1% atropine solution): 6.10 mm
- Photophobia ratio (patients (photophobia); 0.05% atropine solution): 66.67%
- Photophobia ratio (patients (photophobia); 0.1% atropine solution): 85.71%
- Myopia progression (Myopic Children; 0.1% atropine solution): 0.47 diopter/yr
- Myopia progression (Myopic Children; 0.25% atropine solution): 0.45 diopter/yr
- Myopia progression (Myopic Children; 0.5% atropine solution): 0.04 diopter/yr
- Accommodation capability ([2]; 0.05% atropine solution, observed 16.37±2.53 hours after applying, treating period 22.43±12.9 months): 2.45(D)
- Accommodation capability ([2]; 0.1% atropine solution, observed 17.11±1.9 hours after applying, treating period 25.88±12.47 months): 2.22(D)
- Duration of mydriasis (mydriasis phenomenon; 1% (w/w) atropine solution): 7 to 14 days
- Duration of mydriasis (mydriasis phenomenon; Soln, 0.05% (w/w), listed as atropine): 0.5 to 0.75 days
- Increased diopter (D) per year ([3]; 1st (yearly follow-up)): 0.34(D/yr)
- Increased diopter (D) per year ([3]; 2nd (yearly follow-up)): 0.32(D/yr)
- Increased diopter (D) per year ([3]; 3rd (yearly follow-up)): 0.14(D/yr)
- Increased diopter (D) per year ([3]; All (average)): 0.29(D/yr)
- Myopia progression ([3]; 0.05% atropine solution, 21 patients (42 eyes), 6 to 12 years old, treating period 19.95±9.04 months): 0.28(diopter/yr)
